Data on five compounds can be found in US20120135923A1, “Use of Melanocortins to Treat Dyslipidemia” (IPSEN PHARMA, S.A.S., priority 2009, published 2012).

The target of test [1] is T1, hMC5-R (Homo sapiens, UniProt P33032).
T1 construct: expressed in transfected cells; host or cells: CHO-K1
The test is described as follows: Radioligand binding assay, [125I]-NDP-α-MSH competition, CHO-K1 membranes. Here is the method:
Cellular membranes used for the in vitro receptor binding assays were obtained from transgenic CHO-K1 cells stably expressing hMC-R receptor subtypes 1, 3, 4 or 5. […] The pellets were resuspended in the same buffer and centrifuged at 50,000 g for 10 minutes at approximately 4° C. The washed pellets containing the cellular membranes were stored at approximately −80° C.
Cell membranes (1-10 μg protein/well) prepared as described above were incubated in 50 mM Tris-HCl at pH 7.4 containing 0.2% bovine serum albumin (BSA), 5 mM MgCl2, 1 mM CaCl2 and 0.1 mg/mL bacitracin, with increasing concentrations of the test compound and 0.1-0.3 nM [^25I]-NDP-α-MSH for approximately 90-120 minutes at approximately 37° C. […] Filters were washed three times with 50 mM Tris-HCl at pH 7.4 at a temperature of approximately 0-4° C. and then assayed for radioactivity using a Packard Topcount® scintillation counter. Binding data were analyzed by computer-assisted non-linear regression analysis (XL fit; IDBS).

Test [2] deals with T2, hMC1-R (Homo sapiens, UniProt Q01726).
T2 construct: expressed in transfected cells; host or cells: CHO-K1
T2 sequence (Q01726 whole entry): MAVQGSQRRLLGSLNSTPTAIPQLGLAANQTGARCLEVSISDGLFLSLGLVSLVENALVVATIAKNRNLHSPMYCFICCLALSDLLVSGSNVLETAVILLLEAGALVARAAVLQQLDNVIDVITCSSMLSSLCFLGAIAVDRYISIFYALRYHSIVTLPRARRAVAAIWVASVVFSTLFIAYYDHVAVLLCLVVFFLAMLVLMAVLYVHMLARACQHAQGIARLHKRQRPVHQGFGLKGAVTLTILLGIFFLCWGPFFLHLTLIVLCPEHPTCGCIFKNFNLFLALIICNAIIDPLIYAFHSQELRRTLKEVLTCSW
Description: cyclic AMP bioassay (ECL) in CHO-K1 cells. Type of test: cell-based.

Test [3] addresses T3, hMC3-R (Homo sapiens, UniProt P41968).
T3 construct: expressed in transfected cells; host or cells: CHO-K1
Description: cyclic AMP bioassay (ECL) in CHO-K1 cells. Format: cell-based.

For test [4], the target named is T4, hMC4-R (Homo sapiens, UniProt P32245).
T4 construct: expressed in transfected cells; host or cells: CHO-K1
T4 sequence (P32245 whole entry): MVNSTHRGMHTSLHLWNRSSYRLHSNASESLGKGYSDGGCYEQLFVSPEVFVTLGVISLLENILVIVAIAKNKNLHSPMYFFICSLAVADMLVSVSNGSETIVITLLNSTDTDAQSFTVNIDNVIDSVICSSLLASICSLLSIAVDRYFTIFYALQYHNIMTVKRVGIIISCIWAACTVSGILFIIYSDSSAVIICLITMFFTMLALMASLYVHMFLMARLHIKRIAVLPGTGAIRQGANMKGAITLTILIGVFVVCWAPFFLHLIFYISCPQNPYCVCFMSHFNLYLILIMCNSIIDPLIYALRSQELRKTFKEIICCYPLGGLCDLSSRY
The test is described as follows: cyclic AMP bioassay (ECL) in CHO-K1 cells. Format: cell-based.
Description: (§1) Intracellular cyclic AMP (cAMP) levels were determined by an electrochemiluminescence (ECL) assay (Meso Scale Discovery®, Gaithersburg, Md.; referred to hereinafter as MSD). […] Transgenic CHO-K1 cells stably expressing hMC receptor subtypes 1, 3, 4 or 5 were dispensed at a density of approximately 7,000 cells/well in 384-well Multi-Array®plates (MSD) containing integrated carbon electrodes and coated with anti-cAMP antibody. Increasing concentrations of the test compounds were added and the cells were incubated for approximately 40 minutes at approximately 37° C. […] At the end of the second incubation period read buffer (Tris-buffered solution containing an ECL co-reactant and Triton X-100 at ph 7.8) was added and the cAMP levels in the cell lysates were immediately determined by ECL detection with a Sector Imager 6000 Reader® (MSD). Data were analyzed using a computer-assisted non-linear regression analysis (XL fit; IDBS) and reported as either an EC50 value or a Kb value.
(§2) The Kb value reflects the potency of an antagonist and is determined by Schild analysis. In brief, concentration-response curves of an agonist are carried out in the presence of increasing concentrations of an antagonist. […] It is calculated by extrapolating the line on a Schild plot to zero on the y-axis.

Test [5] addresses T1, hMC5-R. The test is described as follows: cyclic AMP bioassay (ECL) in CHO-K1 cells. Type of test: cell-based.
Description: as §1, §2

The structures appear in SMILES notation. Where two headings read alike, the source gives them in different places. Bridge positions count the residues as written; N and C are the ends. Square brackets hold non-standard residues; d marks the D form. Peptide text beside a SMILES is read from it. d2Nal = N[C@H](Cc1ccc2ccccc2c1)C(=O)O; Bta = N[C@@H](Cc1csc2ccccc12)C(=O)O; βAla = NCCC(=O)O

T1 sequence (P33032 whole entry): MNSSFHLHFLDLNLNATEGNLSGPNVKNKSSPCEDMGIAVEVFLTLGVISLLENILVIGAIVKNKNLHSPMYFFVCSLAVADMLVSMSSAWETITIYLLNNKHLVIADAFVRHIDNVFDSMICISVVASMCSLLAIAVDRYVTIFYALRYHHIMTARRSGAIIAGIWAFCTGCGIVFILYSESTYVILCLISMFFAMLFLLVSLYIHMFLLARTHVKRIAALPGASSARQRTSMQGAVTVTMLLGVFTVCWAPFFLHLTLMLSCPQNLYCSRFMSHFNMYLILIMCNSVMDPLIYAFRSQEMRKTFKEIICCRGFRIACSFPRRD
T3 sequence (P41968 whole entry): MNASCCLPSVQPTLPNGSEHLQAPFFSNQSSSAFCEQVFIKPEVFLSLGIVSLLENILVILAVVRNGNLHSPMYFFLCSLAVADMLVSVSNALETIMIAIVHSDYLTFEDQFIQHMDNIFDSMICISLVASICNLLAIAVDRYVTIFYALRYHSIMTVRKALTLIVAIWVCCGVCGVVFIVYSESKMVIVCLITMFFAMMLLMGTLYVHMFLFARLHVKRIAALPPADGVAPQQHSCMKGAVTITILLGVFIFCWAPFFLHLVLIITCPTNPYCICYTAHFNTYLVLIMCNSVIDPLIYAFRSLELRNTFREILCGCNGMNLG

Broadly, the Ki is a dissociation constant, usually derived from enzyme kinetics or from competition with a known ligand. By EC50 is commonly meant the concentration that produces a half-maximal response. For `CC(=O)N[C@H]1CSSC[C@@H](C(=O)N2CCC[C@H]2C(=O)N2CCC[C@H]2C(=O)N[C@@H](CCCNC(=N)N)C(=O)N[C@@H](CC(=O)O)C(=O)NCCC(=O)N[C@@H](CCCNC(=N)N)C(=O)N[C@@H](CCCNC(=N)N)C(=O)N[C@@H](CCCNC(=N)N)C(=O)N[C@@H](CCCNC(=N)N)C(=O)N[C@@H](CCCNC(=N)N)C(=O)N[C@@H](CCC(N)=O)C(=O)N[C@@H](CCCNC(=N)N)C(=O)N[C@@H](CCCNC(=N)N)C(=O)N[C@@H](CCCNC(=N)N)C(N)=O)NC(=O)[C@H](C)NC(=O)[C@H](Cc2csc3ccccc23)NC(=O)[C@H](CCCNC(=N)N)NC(=O)[C@@H](Cc2ccc3ccccc3c2)NC(=O)[C@H](Cc2c[nH]cn2)NC(=O)[C@H](CCC(=O)O)NC1=O`, in test [1] (Ki hMC5-R, Table 6), the Ki amounted to 0.0483 µM. Moreover, the values for the EC50 in test [2] and in test [5] were 0.0383 µM and greater than 10 µM, respectively. Further, the Kb in test [3] worked out at 0.0202 µM; in test [4], 0.0212 µM.

For `CC(=O)N[C@H]1CSSC[C@@H](C(=O)N2CCC[C@H]2C(=O)N2CCC[C@H]2C(=O)N[C@@H](CCCCN)C(=O)N[C@@H](CC(=O)O)C(=O)NCCC(=O)NCC(=O)N[C@@H](CCCNC(=N)N)C(=O)N[C@@H](CCCCN)C(=O)N[C@@H](CCCNC(=N)N)C(=O)N[C@@H](CCCNC(=N)N)C(=O)N[C@@H](CCCNC(=N)N)C(=O)N[C@@H](CCC(N)=O)C(=O)N[C@@H](CCCNC(=N)N)C(=O)N[C@@H](CCCNC(=N)N)C(=O)N[C@@H](CCCNC(=N)N)C(N)=O)NC(=O)[C@H](C)NC(=O)[C@H](Cc2csc3ccccc23)NC(=O)[C@H](CCCNC(=N)N)NC(=O)[C@@H](Cc2ccc3ccccc3c2)NC(=O)[C@H](Cc2c[nH]cn2)NC(=O)[C@H](CCC(=O)O)NC1=O`, in test [1] (Ki hMC5-R, Table 6), the Ki turned out to be 0.0155 µM. The EC50 in test [2] was 0.0322 µM; in test [5], 0.194 µM. The Kb came out at 0.0983 µM in test [3] and 0.00523 µM in test [4].

In test [1] (Ki hMC5, Table 7), `C[C@H]1NC(=O)[C@@H](NC(=O)CN2C(=O)N[C@@H](CCCNC(=N)N)C2=O)CSSC[C@@H](C(N)=O)NC(=O)[C@H](Cc2c[nH]c3ccccc23)NC(=O)[C@H](CCCNC(=N)N)NC(=O)[C@@H](Cc2ccc3ccccc3c2)NC(=O)[C@H](Cc2cnc[nH]2)NC1=O` [Hydantoin(C(O)-(Arg-Gly))-c(Cys-D-Ala-His-D-2-Nal-Arg-Trp-Cys)-NH2] returned a Ki of 0.0146 µM. Besides, the EC50 in test [2] is 0.0966 µM; in test [3] it was 0.0131 µM; in test [4], 0.0212 µM; in test [5], 0.103 µM.

For `CC(=O)N[C@H]1CSSC[C@@H](C(=O)N2CCC[C@H]2C(=O)N2CCC[C@H]2C(=O)N[C@@H](CCCCN)C(=O)N[C@@H](CC(=O)O)C(=O)NCCC(=O)NCC(=O)N[C@@H](CCCNC(=N)N)C(=O)N[C@@H](CCCNC(=N)N)C(=O)N[C@@H](CCCNC(=N)N)C(=O)N[C@@H](CCCNC(=N)N)C(=O)N[C@@H](CCCNC(=N)N)C(=O)N[C@@H](CCC(N)=O)C(=O)N[C@@H](CCCNC(=N)N)C(=O)N[C@@H](CCCNC(=N)N)C(=O)N[C@@H](CCCNC(=N)N)C(N)=O)NC(=O)[C@H](C)NC(=O)[C@H](Cc2csc3ccccc23)NC(=O)[C@H](CCCNC(=N)N)NC(=O)[C@@H](Cc2ccc3ccccc3c2)NC(=O)[C@H](Cc2c[nH]cn2)NC(=O)[C@H](CCC(=O)O)NC1=O` (Ac-CEH[d2Nal]R[Bta]ACPPKD[βAla]GRRRRRQRRR-NH2; disulfide 1-8), the Ki in test [1] (Table 6, read-out: Ki hMC5-R) came out at 0.165 µM. Also, the EC50 in test [2] (cAMP, CHO-K1 cells expressing hMC1-R, read-out: EC50 hMC1-R) was found to be 0.146 µM; in test [5] (cAMP, CHO-K1 cells expressing hMC5-R, read-out: EC50 hMC5-R), 1.4 µM. The Kb was 0.104 µM in test [3] (antagonist potency by Schild analysis, cAMP, CHO-K1 cells expressing hMC3-R, read-out: Kb hMC3-R) and 0.032 µM in test [4] (antagonist potency by Schild analysis, cAMP, CHO-K1 cells expressing hMC4-R, read-out: Kb hMC4-R).

In turn, `C[C@H]1NC(=O)[C@@H](NC(=O)CN2C(=O)CNC2=O)CSSC[C@@H](C(N)=O)NC(=O)[C@H](Cc2c[nH]c3ccccc23)NC(=O)[C@H](CCCNC(=N)N)NC(=O)[C@@H](Cc2ccccc2)NC(=O)[C@H](Cc2cnc[nH]2)NC1=O` [Hydantoin(C(O)-(Gly-Gly))-c(Cys-D-Ala-His-D-Phe-Arg-Trp-Cys)-NH2] gave a Ki in test [1] (Ki hMC5, Table 7) of 0.05 µM. The EC50 in test [2] is 0.0142 µM; in test [3], 0.00246 µM; in test [4], 0.000336 µM; in test [5], 0.201 µM.
